Test results as given in PubChem BioAssay (NCI).
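Grown in 96-well plates, cells were treated for 48 hours with each compound at five concentrations. Insufficient inhibition: endpoint recorded as highest concentration tested. Abbreviation: GI50, concentration required for 50% inhibition of growth. At the TGI there is no net growth.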

Tests used:
Test in all cases: inhibition of tumour cell growth, NCI panel, 48 h
[1] = tested on: DU-145 prostate
[2] = tested on: HL-60(TB) leukemia
[3] = tested on: HOP-62 NSCLC
[4] = tested on: K-562 leukemia
[5] = tested on: KM12 colon
[6] = tested on: M14 melanoma
[7] = tested on: NCI-H522 lung
[8] = tested on: RXF 393 renal
[9] = tested on: SF-268 CNS
[10] = tested on: SK-MEL-5 melanoma

| Structure (SMILES) | GI50 [1] [µM] | TGI [1] [µM] | TGI [2] [µM] | GI50 [3] [µM] | TGI [3] [µM] | GI50 [4] [µM] | TGI [4] [µM] | GI50 [5] [µM] | TGI [5] [µM] | GI50 [6] [µM] | TGI [6] [µM] | GI50 [7] [µM] | TGI [7] [µM] | GI50 [8] [µM] | TGI [8] [µM] | TGI [9] [µM] | GI50 [10] [µM] | TGI [10] [µM] | GI50 [2] [µM] | GI50 [9] [µM] |
| --- | --- | --- | --- | --- | --- | --- | --- | --- | --- | --- | --- | --- | --- | --- | --- | --- | --- | --- | --- | --- |
| O=C(COc1ccc(OCC(=O)N2C(=O)CN(c3ccccc3)C2=S)cc1)N1C(=O)CN(c2ccccc2)C1=S | > 25 | > 100 | > 100 | > 25 | > 100 | > 25 | > 100 | > 25 | > 100 | > 25 | > 100 | > 25 | > 100 | > 25 | > 100 | > 100 | > 100 | > 100 | – | – |
| C[C@@H](NC(=O)c1ncnc(N)c1Cl)c1ncc(C(=O)Nc2cc(C(F)(F)F)c(Cl)cn2)s1 | 26.7 | > 82.7 | 29 | 24.3 | 84.8 | 0.462 | > 45.9 | 21.3 | > 84.6 | 0.497 | 13.6 | 13.5 | 34.3 | 24.2 | 68.7 | > 71.6 | 8.91 | 24.1 | 3.3 | 26.8 |
| Cc1nc(-c2cnc(NC(C)C)n(C)c2=O)ccc1Oc1ccnc(-c2cnn(C)c2)c1 | 33.2 | > 100 | 26.6 | 12.7 | > 100 | 1.64 | 9.33 | 5.91 | > 100 | 5.72 | 33.4 | 5.77 | 71.9 | 10.7 | 44 | > 100 | 4.59 | 19.5 | 4.31 | 23 |
| CCN(CC)CCN1C(=O)C2C3C(=O)CC(C)(CC3C)C2C1=O (stereo not drawn) | > 100 | > 100 | > 100 | > 100 | > 100 | > 100 | > 100 | > 100 | > 100 | > 100 | > 100 | > 100 | > 100 | > 100 | > 100 | > 100 | > 100 | > 100 | > 100 | > 100 |
| C(=Nc1cnc2ccccc2c1)c1ccc2ccccc2n1 | – | > 100 | > 100 | – | > 100 | – | > 100 | – | > 100 | – | > 100 | – | > 100 | – | > 100 | > 100 | – | > 100 | – | – |
| OCc1ccc(N2CCc3cc(F)ccc3C2)cc1Cl | 6.67 | 20.6 | 29.1 | 0.302 | 17.9 | 0.125 | 17.2 | 13.2 | 27.3 | 16.2 | 30.7 | 12.7 | 25.9 | 0.993 | 17.5 | 29.9 | 3.95 | 20.4 | 1.64 | 15.2 |
| COc1cccc(C2=C(c3cn(C)c4cc(F)ccc34)C(=O)NC2=O)c1 | > 25 | > 25 | > 25 | > 25 | > 25 | 12.4 | > 25 | > 17.4 | > 25 | 24.6 | > 25 | > 15.9 | > 25 | 8.79 | > 25 | > 25 | 11 | > 21 | 13.6 | > 22.2 |
| C/C(=N/O)c1ccc2c(c1)/C(=N/O)c1ccccc1-2 | 26.4 | 71 | 35.7 | 25 | 56.4 | 15.8 | 32.4 | 18.1 | 35.4 | 21.9 | 40.6 | 17.9 | 35.2 | 21.3 | 44.8 | > 100 | 17 | 31.2 | 15.8 | 32.2 |
| NC1=NC(=O)/C(=C/c2ccc3ncccc3c2)S1 | > 25 | > 25 | > 25 | > 25 | > 25 | > 25 | > 25 | > 25 | > 25 | > 25 | > 25 | > 18.4 | > 25 | > 25 | > 25 | > 25 | > 25 | > 25 | > 25 | > 25 |
| CCCCCCCCCCCCCCCCCCOc1ccccc1CC(=O)OCC[N+](CC)(CC)CC | 2.07 | 7.99 | 2.78 | 1.76 | 8.32 | 1.5 | 50 | 1.42 | 3.86 | 1.53 | 5.4 | 1.53 | 6.84 | 0.924 | 2.06 | 6.32 | 0.942 | 1.75 | 0.926 | 1.48 |
| COc1cccc(/C=C/c2ccnc3ccccc23)c1OC | – | > 10 | > 10 | – | > 10 | – | > 10 | – | > 10 | – | > 10 | – | > 10 | – | > 10 | > 10 | – | > 10 | – | – |
| NC(=O)CC1(O)C=C(Br)C(=O)C(Br)=C1 | 6.05 | 19 | 4.64 | 26.1 | > 61.2 | 2.22 | 8.73 | 13.8 | 27.2 | 2.64 | > 32.8 | 0.326 | 1.44 | 1.9 | 4.05 | 21.2 | 12.5 | 25.6 | 1.85 | 9.09 |
| CCCCCCCCCC(CCCC(O)CC(=O)O)OC1OC(COC2OC(C)C(OC(C)=O)C(O)C2O)C(O)C(O)C1OC1OC(CO)C(O)C(O)C1OC1OC(C)C(OC(=O)CC(C)C)C(O)C1O (stereo not drawn) | > 35 | > 35 | > 35 | > 35 | > 35 | > 35 | > 35 | > 35 | > 35 | > 35 | > 35 | > 35 | > 35 | > 35 | > 35 | > 35 | > 35 | > 35 | > 35 | > 35 |
